# Measurements as given in paper PMC3484517 (The Korean Journal of Physiology & Pharmacology : Official …, 2012).
# Where two headings read alike, the source gives them in different places.
# Columns and labels:
# [1] = target: hERG K+ channel (IKr) (Homo sapiens, UniProt Q12809); assay: whole-cell patch clamp of hERG; type: cell-based; conditions: human, HEK293 cells transiently transfected with hERG, pH 7.4
# [2] = target: hERG K+ channel (Homo sapiens, UniProt Q12809); assay: whole-cell patch clamp of hERG; type: cell-based
# Sequence of hERG K+ channel (Q12809 whole entry): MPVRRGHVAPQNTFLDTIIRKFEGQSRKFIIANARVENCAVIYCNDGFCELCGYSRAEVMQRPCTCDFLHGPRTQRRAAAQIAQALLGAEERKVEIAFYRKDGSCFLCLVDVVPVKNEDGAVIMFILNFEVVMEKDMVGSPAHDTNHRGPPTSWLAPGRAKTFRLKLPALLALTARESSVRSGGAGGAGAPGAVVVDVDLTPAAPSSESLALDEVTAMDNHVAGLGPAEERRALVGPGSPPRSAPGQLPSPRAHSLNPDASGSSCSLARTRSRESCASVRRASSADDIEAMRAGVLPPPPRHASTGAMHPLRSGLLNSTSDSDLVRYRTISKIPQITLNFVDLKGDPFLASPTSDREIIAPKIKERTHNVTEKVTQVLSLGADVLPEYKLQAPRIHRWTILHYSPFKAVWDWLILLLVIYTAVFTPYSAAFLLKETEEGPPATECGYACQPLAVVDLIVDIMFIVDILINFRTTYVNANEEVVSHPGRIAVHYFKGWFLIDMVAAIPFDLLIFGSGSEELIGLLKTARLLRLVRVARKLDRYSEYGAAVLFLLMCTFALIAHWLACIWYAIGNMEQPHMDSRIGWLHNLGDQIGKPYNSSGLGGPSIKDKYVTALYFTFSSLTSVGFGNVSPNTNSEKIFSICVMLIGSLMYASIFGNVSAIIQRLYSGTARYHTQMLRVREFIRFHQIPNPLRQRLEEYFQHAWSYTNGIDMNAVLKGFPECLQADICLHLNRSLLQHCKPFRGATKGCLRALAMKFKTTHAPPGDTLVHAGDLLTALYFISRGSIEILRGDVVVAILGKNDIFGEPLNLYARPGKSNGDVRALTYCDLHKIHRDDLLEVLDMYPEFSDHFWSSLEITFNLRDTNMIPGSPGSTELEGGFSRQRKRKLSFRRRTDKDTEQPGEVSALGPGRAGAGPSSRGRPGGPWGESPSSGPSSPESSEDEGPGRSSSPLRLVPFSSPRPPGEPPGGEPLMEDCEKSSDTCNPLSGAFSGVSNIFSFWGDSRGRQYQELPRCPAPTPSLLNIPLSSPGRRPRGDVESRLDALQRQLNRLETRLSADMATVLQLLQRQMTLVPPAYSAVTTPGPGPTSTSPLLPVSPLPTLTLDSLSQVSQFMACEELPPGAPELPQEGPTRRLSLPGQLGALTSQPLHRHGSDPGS
# [3] = target: T1, KCNJ2 (IK1) (Homo sapiens, UniProt P63252); assay: whole-cell patch clamp of IK1 in KCNJ2-transfected HEK293 cells; type: cell-based
# T1 sequence (P63252 1-427): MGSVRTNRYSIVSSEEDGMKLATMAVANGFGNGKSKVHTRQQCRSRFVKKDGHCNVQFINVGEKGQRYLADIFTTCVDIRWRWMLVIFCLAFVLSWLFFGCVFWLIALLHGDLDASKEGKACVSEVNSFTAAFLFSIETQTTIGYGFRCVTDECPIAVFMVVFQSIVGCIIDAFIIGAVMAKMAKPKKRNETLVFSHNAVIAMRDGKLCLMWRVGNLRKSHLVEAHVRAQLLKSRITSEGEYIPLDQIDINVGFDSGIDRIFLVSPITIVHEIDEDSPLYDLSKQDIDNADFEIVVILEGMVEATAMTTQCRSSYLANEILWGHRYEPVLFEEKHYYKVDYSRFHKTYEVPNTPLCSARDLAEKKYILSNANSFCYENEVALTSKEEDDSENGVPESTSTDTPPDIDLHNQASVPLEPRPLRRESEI
# [4] = target: KCNQ1/KCNE1 (IKs) (Homo sapiens, UniProt P51787); assay: whole-cell patch clamp of IKs in KCNQ1/KCNE1-cotransfected HEK293 cells; type: cell-based
# Sequence of KCNQ1/KCNE1 (IKs) (P51787 whole entry): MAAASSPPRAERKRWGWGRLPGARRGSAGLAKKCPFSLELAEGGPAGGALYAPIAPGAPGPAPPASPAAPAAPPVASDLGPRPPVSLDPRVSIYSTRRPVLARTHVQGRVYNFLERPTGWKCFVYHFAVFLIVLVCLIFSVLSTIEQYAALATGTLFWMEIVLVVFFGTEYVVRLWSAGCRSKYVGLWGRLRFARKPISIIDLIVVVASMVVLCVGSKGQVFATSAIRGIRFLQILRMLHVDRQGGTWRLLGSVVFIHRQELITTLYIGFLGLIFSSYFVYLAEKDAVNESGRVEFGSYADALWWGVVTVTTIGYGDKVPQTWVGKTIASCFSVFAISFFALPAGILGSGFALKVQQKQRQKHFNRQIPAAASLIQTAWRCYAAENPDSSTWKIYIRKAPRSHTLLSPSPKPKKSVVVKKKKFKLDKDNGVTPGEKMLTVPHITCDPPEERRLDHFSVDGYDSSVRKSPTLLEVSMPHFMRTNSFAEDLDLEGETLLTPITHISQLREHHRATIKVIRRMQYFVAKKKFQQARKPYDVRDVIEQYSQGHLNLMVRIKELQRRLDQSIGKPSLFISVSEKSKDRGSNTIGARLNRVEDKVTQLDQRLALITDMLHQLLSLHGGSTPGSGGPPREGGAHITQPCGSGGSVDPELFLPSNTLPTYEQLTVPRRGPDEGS
# [5] = test system: ECG intervals (RR, PR, QRS, QT); conditions: adult outpatient population (n=1,048); cited from earlier work
# [6] = test system: isolated guinea-pig atria; conditions: spontaneously beating isolated guinea-pig atria; cited from earlier work
# Sequence of hERG K+ channel (IKr) (Q12809 whole entry): as the sequence (Q12809 whole entry) above
smiles,measurement,setting,value
CN[C@H]1CC[C@@H](c2ccc(Cl)c(Cl)c2)c2ccccc21 [Sertraline],inhibition at 1 µM,[1],7.9 ± 1.9%
same,inhibition at 3 µM,[1],24.2 ± 1.9%
same,inhibition at 10 µM,[1],60.1 ± 2.7%
same,inhibition at 30 µM,[1],86.4 ± 1.4%
same,IC50,[2],0.7 µM
same,"Hill coefficient, hERG current inhibition","[2]; HEK293 cells, Hill fit, n=4",1.3±0.02
same,IC50,[3],10.5 µM
same,reduction of IK1 amplitude,"[3]; 1 µM sertraline, n=4",0.7±2.7%
same,reduction of IK1 amplitude,"[3]; 3 µM sertraline, n=4",9.4±1.1%
same,reduction of IK1 amplitude,"[3]; 10 µM sertraline, n=4",45.7±3.9%
same,reduction of IK1 amplitude,"[3]; 30 µM sertraline, n=4",92.5± 1.2%
same,"Hill coefficient, IK1 inhibition","[3]; KCNJ2 HEK293 cells, n=4",2.1±0.2
same,IC50,[4],12.3 ± 1.3 µM
same,reduction of IKs amplitude,"[4]; 1 µM sertraline, n=4",1.5±3.8%
same,reduction of IKs amplitude,"[4]; 3 µM sertraline, n=4",10.3±2.5%
same,reduction of IKs amplitude,"[4]; 10 µM sertraline, n=4",36.6±3.5%
same,reduction of IKs amplitude,"[4]; 30 µM sertraline, n=4",84.0±5.6%
same,"Hill coefficient, IKs inhibition","[4]; KCNQ1/KCNE1 HEK293 cells, n=4",2.5±0.1
same,IC50,"[4]; human, HEK293 cells transiently cotransfected with KCNQ1/KCNE1, pH 7.4",15.2 µM
same,"effect on RR, PR, QRS, and QT intervals",[5],no significant effect
same,effect on rate of contractions and contractile force,[6],dose-dependent decrease in the rate contractions and in the contractile force
